The text below walks through data of BindingDB's records for doi:10.1021/acs.jmedchem.6b00247 (Sanford Burnham Prebys Medical Discovery Institute, 2016).

A short description of the assay: Antagonist activity against HIV-1 Vif in human CEM cells assessed as inhibition of viral infection.

The term IC50 denotes the point on the concentration scale where inhibition reaches its midpoint.

The structures appear in SMILES notation.

For the molecule `COc1ccccc1NC(=O)c1ccccc1Sc1ccc([N+](=O)[O-])cc1`, the concentration for half-maximal inhibition (IC50) is 4.5 µM.
